Consider ten compounds from patent US20250101338A1, “BIOMASS DERIVED SURFACE-ACTIVE COMPOSITIONS AND PRODUCTS” (Cambridge Glycoscience Ltd, priority 2021, published 2025).

A value given as a limit tells only on which side of the number the result lay.

Data set [1] is described as follows: Lipophilic substances solubilization test, lemongrass oil (Example 71). It counts as physicochemical. The conditions noted are these: 2 mL of 5 wt % aqueous solution, stepwise addition of 2.5 μL, duplicate. On the procedure:
After each addition, the sample was agitated with a vortex mixture for 60 s and left to stand for 5 min. If no heterogenous phase was observed visually, the oil was said to be fully soluble. If a heterogenous, immiscible biphasic or emulsion was visible, then the saturation limit for that surface-active component was said to have been exceeded. Each surface-active composition was tested in duplicate.

A further data set deals with Zein. As to the kind of experiment: Zein solubilization test, irritation potential (Example 68). The conditions noted are these: 25 mg zein in 1 mL of 1 wt % active surfactant solution, 30 min, BCA assay, triplicate. On the procedure: Zein is a water-insoluble corn protein, structurally similar to keratin. The ability of a surfactant to solubilize zein is related to irritation potential. The more zein solubilized, the more irritating the product is deemed to be, according to this test. […] The solutions were centrifuged, and the protein concentration in the supernatant determined by BCA assay. Each surfactant was tested in triplicate. Protein content was determined from a bovine serum albumin (BSA) standard curve.

Data set [2] is described as follows: Water in oil emulsion stability test (Example 65). The conditions noted are these: 0.5 mL water with 2 wt % substance + 1.5 mL sunflower oil, vortex 30 s, visual inspection. The format is physicochemical. On the procedure: 0.5 mL deionized water containing 2 wt % of the stated inventive or comparative compound was added to 1.5 mL commercial, food-grade sunflower oil, in a sample vial. The vials were each agitated with a IKA Vortex mixture for 30 seconds. The vials were left to stand and inspected visually for emulsion quality after 5 minutes, 1 hour, 4 hours and finally 24 h (FIG. 14 and FIG. 15). […] The results also show an unexpected increase in emulsifying performance for the inventive compositions comprising oligosaccharide mixture-derived surface-active agents (such as example 4-6 compositions) compared with those derived from a single monomeric sugar (xylose) alone (such as example 12 and 13 compositions).

Data set [3] can be described thus: Flash foam generation test (Example 70). The format is physicochemical. The note with it: 20 mg in 4 mL deionized water (10 wt % [sic]), 2 mL shaken 30 s in 15 mL tube, duplicate average. On the procedure: 20 mg of each surface-active composition for testing was dissolved in deionized water (4 mL) to give a 10 wt % solution, 2 mL was added to a 15 mL FALCON tube. Each falcon tube was secured in a holder before being vigorously shook for 30 seconds. The initial foam height and structure was noted. The foam height was then noted at 5 min, 10 min, 15 min, 30 min, 45 min, 1 hr and 2 hr after the initial measurement. The experiment was repeated in duplicate. Averaged results are depicted in table 5 and FIG. 11.

Data set [4] is described as follows: Lipophilic substances solubilization test, preservative P12 (Example 72). The format is physicochemical. The conditions noted are these: 2 mL of 5 wt % aqueous solution, stepwise addition of 10 μL, duplicate. On the procedure: After each addition, the sample was agitated with a vortex mixture for 60 s and left to stand for 5 min. If no heterogenous phase was observed visually, the oil was said to be fully soluble. If a heterogenous phase or emulsion was visible, then the saturation limit for that surface-active component was said to have been exceeded. Each surface-active composition was tested in duplicate.

Data set [5] in a line: Relative viscosity, gravity flow time (Example 74). The conditions noted are these: 10 mL of 10 wt % sodium dodecyl sulfate + 0.3 g NaCl + 0.655 mL of 30 wt % test solution, 27° C., triplicate. It counts as physicochemical. On the procedure:
The time taken for precisely 3 mL of testing mixture to pass out of the […] by gravity was recorded. The test was repeated in triplicate. Averaged results are depicted in FIG. 20 and table 9. It was unexpected that example 11 composition recorded such high viscosity over example 14 composition, which differs by a slightly smaller alkyl chain (octyl instead of decyl).

Data set [6] can be described thus: Dynamic foam tests (Example 69). The format is physicochemical. The note with it: 5 mL of 0.5 wt % aqueous solution, 40 cm^3 air bubbled at 17 cm^3/min. On the procedure: The intensity and approximate decay-rate for the foaming behavior of the surface-active compositions in dilute aqueous solution was determined by dosing 5 mL of 0.5 wt % aqueous solution of surface-active composition to a vertically-aligned 50 m plastic serological pipette (“Stripette”). Air (40 cm^3) was bubbled through the surface-active composition solution at a rate of 17 cm^3/min via a syringe pump and the foam height upon complete addition of air recorded. The foam height was also recorded again 5 min after complete addition of air, 10 min after complete addition of air, 15 m after complete addition of air, 30 min after complete addition of air, 1 hour after complete addition of air and finally 2 hours after complete addition of air.

A short description of data set [7]: Aqueous solubility noted at preparation. The format is physicochemical. The note with it: water, room temperature. On the procedure:
Solid N-decyl xylosylamine (7.6 g) was suspended in 2-propanol (60 mL) and triethylamine (2 equiv.) then acetic anhydride (1.6 equiv.) was added slowly. Stirring continued at ambient temperature for 10 h. Water (50 mL) was added, and the mixture stirred for 5 min. Dichloromethane (50 mL) was added and the phases separated. The aqueous phase was extracted with additional DCM. The combined organic phase washed with saturated aqueous NH4Cl solution, then the aqueous phase extracted with additional DCM. The combined organic phases were dried over anhydrous magnesium sulfate, filtered, then concentrated under reduced pressure to give a yellow oil. The oil was purified by FCC eluting with MeOH (2-15%) in DCM (120 g normal phase silica cartridge with wet loading). Fractions containing the product were combined and evaporated to dryness to give the desired product (4.1 g, 49%) as a yellow gum. LC-MS (Method A), Rt=1.69 min, [M+H]+=332.2. The gum product can be dissolved in water to form solutions of 50 wt % or greater.
The process was carried out in essentially the same manner as in Example 11 a) step (ii) but using the solid product of Example 11 reaction c) step (i) and the crude product was instead purified by FCC eluting with MeOH (2-13%) in DCM. There were obtained 1.4 g of cream gum product. LC-MS (Method A), Rt=1.87 min, [M+H]^+=360.5.

Data set [8] can be described thus: Critical micellular concentration determination (Example 78). It counts as physicochemical. The conditions noted are these: deionized water. On the procedure:
Stock solutions were prepared of known weight concentration (range spanning 0.005 wt %-5.000 wt %) of inventive surface-active compositions (by solution of the appropriate weight of example composition in deionized water). For reference, the surface tension of deionized water in the absence of a surface-active composition is 73 mN. […] The surface tensions of the solutions at the concentration of the CMC were also noted. Results are shown in table 10 and graphical results are depicted in FIG. 22.

Take `CCCCCCCCCCO[C@@H]1O[C@H](CO)[C@@H](O)[C@H](O)[C@H]1O` [Decyl glucoside, reference compound]: the “Maximum volume of lemongrass oil solubilized” value in data set [1] was 2.5 µL. Besides, the “Resulting zein concentration solubilized” value in the data set with Zein was 1129 µg/mL. Besides, the “Time inspected by which the emulsion first appeared dispersed” value (from here on “Time inspected”) in data set [2] is 24 h. Besides, the “Volume of foam after given time” value in data set [3] (0 min) came out at 12.0 cm^3; in data set [3] (5 min), 12.0 cm^3; in data set [3] (15 min), 11.8 cm^3; in data set [3] (30 min), 11.5 cm^3; in data set [3] (1 h) it was 11.5 cm^3; in data set [3] (2 h), 11.0 cm^3. Further, the “Maximum volume of preservative P12 solubilized” value in data set [4] worked out at 40 µL.
For the compound `CCCCCCCCCCCCO[C@@H]1O[C@H](CO)[C@@H](O)[C@H](O)[C@H]1O` [Dodecyl Glucoside, reference compound], the “Average time (for 3 mL to pass out of the stripette by gravity)” value (“Average time” for short) in [5] came out at 4.0 s. Moreover, the “Time inspected” value in [2] amounted to 12 h. The “Volume of foam after given time” value is recorded as 42.3 cm^3 in data set [6] (0 min); 42.3 cm^3 in data set [6] (5 min); 42.3 cm^3 in data set [6] (15 min); 42.3 cm^3 in data set [6] (30 min); 42.0 cm^3 in data set [6] (1 h); 42.0 cm^3 in [6] (2 h).
As for `CCCCCCCCCCCCCCN(C(C)=O)C1OC[C@@H](O)[C@H](O)[C@H]1O` (stereo partly shown) [Example 12 composition, N-tetradecyl N-acetyl xylosylamine], the “Time inspected” value in [2] was found to be 1 h.
For the compound `CCCCCCCCCCCCN(C(C)=O)C1OC[C@@H](O)[C@H](O)[C@H]1O` (stereo partly shown) [Example 13 composition, N-dodecyl N-acetyl xylosylamine], the “Aqueous solubility (in words)” value in data set [7] is listed as “only sparingly soluble”. The “Maximum volume of lemongrass oil solubilized” value in data set [1] stood at 5.0 µL. Moreover, the “Time inspected” value in [2] came to 1 h.
On to `CCCCCCCCN(C(C)=O)C1OC[C@@H](O)[C@H](O)[C@H]1O` (stereo partly shown) [Example 14 composition, N-octyl N-acetyl xylosylamine], for which, in [5], the “Average time” value came out at 10.0 s. Also, the “Maximum volume of lemongrass oil solubilized” value in data set [1] is 5.0 µL. Moreover, the “Time inspected” value in [2] was 0.083 h.
Regarding `CCCCCCCCCCCCN(C(C)=O)C1O[C@H](CO)[C@@H](O[C@@H]2O[C@H](CO)[C@@H](O)[C@H](O)[C@H]2O)[C@H](O)[C@H]1O` (stereo partly shown) [Example 23 composition, N-dodecyl N-acetyl cellobiosylamine], the “Volume of foam after given time” value worked out at 3.5 cm^3 in [3] (0 min); 3.5 cm^3 in data set [3] (5 min); 3.5 cm^3 in data set [3] (15 min); 3.0 cm^3 in data set [3] (30 min); 2.8 cm^3 in [3] (1 h); 2.5 cm^3 in [3] (2 h). The “Volume of foam after given time” value is 38.5 cm^3 in data set [6] (0 min); 4.0 cm^3 in data set [6] (5 min); 4.0 cm^3 in [6] (15 min); 4.0 cm^3 in data set [6] (30 min); 3.0 cm^3 in [6] (1 h); 3.0 cm^3 in [6] (2 h). The “Solution Surface tension at CMC” value in [8] is reported as 45 mN. This compound came in with a CMC in data set [8] (from surface tension at 0.005-5.000 wt %) of 0.03 wt %.
On to `CCCCCCCCCCCCOS(=O)(=O)[O-].[Na+]` [Sodium dodecyl sulfate, reference compound], for which the “Time inspected” value in data set [2] came out at 1 h. For the same compound, the “Volume of foam after given time” value in data set [3] (0 min) is on record as 15.0 cm^3; in data set [3] (5 min), 15.0 cm^3; in [3] (15 min), 15.0 cm^3; in [3] (30 min) it was 15.0 cm^3; in data set [3] (1 h) it was 15.0 cm^3; in [3] (2 h) it was 14.0 cm^3.
Consider `O=C[C@H](O)[C@@H](O)[C@H](O)CO` [Xylose, reference compound], for which, in [2], the “Time inspected” value is below 0.083 h.
Regarding Cocoamidopropyl betaine, the “Average time” value in [5] turned out to be 524.0 s.
The same measure, in the same setting: the result for Lauryl glucoside reads 1.9 s.
